Data on 5 molecules can be found in patent US9486519B2, “Use of FLT3 ligand for enhancing immune responses in RNA immunization” (BioNTech AG, priority 2008, dated 2016).

Series [1] relates to macropinocytosis. In words: Intranodal RNA immunization after Rottlerin pretreatment of lymph nodes, tetramer measurement. In kind it is in vivo, C57Bl/6 mice. As to conditions: SIINFEKL-coding RNA 20 μg intranodally d0 and d3; lymph nodes pretreated. The procedure: (e) C57Bl/6 mice (n=3) were immunized intranodally on d0 and d3 with […]-coding RNA (20 μg). On both days the lymph nodes were pretreated with Rottlerin as described above. On day 8 the success of immunization was quantified by tetramer measurement in the peripheral blood. The success of intranodal RNA immunization correlated directly with the ability of cells to take up RNA by macropinocytosis.
To verify whether the in vivo inhibition of macropinocytosis has an effect on the efficiency of T cell priming after intranodal RNA immunization, C57/B16 mice (n=3) were immunized intranodally on d0 and d3 with […]-coding RNA (20 μg). On both days the lymph nodes were pretreated with Rottlerin as described above. The mean+SEM of the frequency of CD8+ antigen-specific T lymphocytes is shown. […] FIG. 6(e).
The main uptake mechanism of RNA uptake is macropinocytosis.

In the next series the test system is human iDCs. Briefly: RNA uptake by human iDCs pretreated with macropinocytosis inhibitors, luciferase test. The class given is cell-based. Conditions: 15 min luciferase-RNA or Cy3-RNA. The procedure: (b-c) Human iDCs were pretreated with various inhibitors (dimethyl amiloride, cytochalasin D, LY294002, Rottlerin) and then coincubated for 15 min with luciferase-RNA or Cy3-RNA. After 24 h the luciferase signal was quantified in a standard luminescence test.
To verify whether the macropinocytosis constitutively active in iDCs is relevant for the uptake of naked RNA, human iDCs were pretreated with various inhibitors (dimethyl amiloride, cytochalasin D, LY294002, Rottlerin) and then coincubated for 15 min with luciferase-RNA or Cy3-RNA. After culture for a further 22 h, RNA uptake was quantified in a luciferase test. The mean+SEM is shown. The iDCs coincubated with Cy3-RNA (red) were fixed with paraformaldehyde and counterstained (Hoechst 33342, blue). […] FIG. 6(b-c).

Series [2] deals with macropinocytosis. Briefly: RNA uptake in lymph nodes after in vivo Rottlerin pretreatment, in-vivo bioluminescence. Also on record: species or system C57Bl/6 mice. As to conditions: inguinal lymph nodes pretreated with 10 μM; luciferase-RNA 10 μg intranodally; 24 h. As for the experimental part: To clarify whether macropinocytosis is also the uptake mechanism relevant in vivo for RNA in the lymph node, the inguinal lymph nodes of C57/B16 mice were pretreated with Rottlerin (n=4, 10 μM) and then luciferase-RNA (10 μg) was injected intranodally. After 24 h, the in-vivo bioluminescence signal was measured.

In series [3] the test system is RNA uptake in the lymph nodes. Briefly: Effect of Poly I:C on RNA uptake in lymph nodes, in-vivo bioluminescence. Also on record: species or system C57Bl/6 mice. Conditions: 20 μg s.c.; luciferase-RNA intranodally after 2 or 24 h. As for the experimental part:
(e) Effect of Poly I:C on RNA uptake. C57Bl/6 mice (n=4) were injected s.c. with PBS or Poly I:C (20 μg) and after 2 or 24 h, luciferase-RNA was applied intranodally. After 24 h the luciferase signal was quantified in a standard bioluminescence test.
In order to verify to what extent maturing adjuvants can also lead in vivo to a reduction of RNA uptake, we tested the effect of Poly I:C on RNA uptake; cf. FIG. 7(e). For this, C57/Bl6 mice (n=4) were injected s.c. with PBS or Poly I:C (20 μg) and after 2 or 24 h, luciferase-RNA was applied intranodally. The in-vivo bioluminescence was measured after a further 24 h. The mean+SEM is shown.

Series [4] deals with cell populations of the murine lymph node. In words: Effects of different Flt3L on the cellular composition in lymph nodes. In kind it is in vivo, C57BL/6 mice. As to conditions: 0.4 mol i.p. day 0; lymph nodes day 10. The text has this:
On day 10 the lymph nodes of the mice were removed and characterized by flow cytometry. Dendritic cells (DCs (marker: CD11c^+/NK1.1^−)), CD4^+ helper T cells (marker: CD3^+/CD4^+/CD8^−/NK1.1^−), CD8^+ T cells (marker: CD3^+/CD8^+/CD4^−/NK1.1^−), CD19^+ B cells (marker: CD19^+/CD3^−/NK1.1^−).
In this experiment Flt3 ligand (Flt3-IgG4) was compared with commercially available Flt3 preparations with respect to the effect on different cell populations of the murine lymph node. A product recombinantly expressed in bacteria (Peprotech Flt3L; Peprotech, Hamburg, Germany) and a product expressed in human HEK293 cells (Humanzyme Flt3L, Humanzyme; Chicago Ill., U.S.A.) were used as commercially available Flt3 preparations. Human IgG4 (Sigma-Aldrich, Deisenhofen, Germany) served as control.
On day 10 both inguinal lymph nodes of the mice were removed, the cell count determined by means of a Neubauer chamber and the cell populations were characterized by flow cytometry.

For series [5] the following is noted: Robinson et al., 2003; cited from earlier work.

On to `CC(=O)c1c(O)c(C)c(O)c(Cc2c(O)c3c(c(C(=O)/C=C/c4ccccc4)c2O)OC(C)(C)C=C3)c1O` [Rottlerin], for which the “vaccine action after inhibition of macropinocytosis” value in the series with macropinocytosis [1] was “almost complete loss of vaccine action”. The “inhibition of RNA uptake” value with human iDCs is given as “more than 90%”. In the series with macropinocytosis [2], the “RNA uptake in the lymph node” value is listed as “drastically reduced”.
Turning to Poly I:C, in series [3], the “RNA uptake (in-vivo bioluminescence)” value is given as “sharp reduction in RNA uptake”.

B1: Flt3L (Humanzyme): commercially available Flt3 preparation expressed in human HEK293 cells (Humanzyme) (protein, UniProt P49771 27-235, looked up)
Fms-related tyrosine kinase 3 …: TQDCSFQHSPISSDFAVKIRELSDYLLQDYPVTVASNLQDEELCGGLWRLVLAQRWMERLKTVAGSKMQGLLERVNTEIHFVTKCAFQPPPSCLRFVQTNISRLLQETSEQLVALKPWITRQNFSRCLELQCQPDSSTLPPPWSPRPLEATAPTAPQPPLLLLLLLPVGLLLLAAAWCLHWQRTRRRTPRPGEQVPPVPSPQDLLLVEH
With B1, the “expansion of dendritic cells” value in series [4] was “strong similarity”.

B2: Flt3L without IgG4 fusion: Flt3L without IgG4 fusion, published half-life value (Robinson et al., 2003) (protein, UniProt P49771 27-235, looked up)
Fms-related tyrosine kinase 3 …: B1 Fms-related tyrosine kinase 3 …
Regarding B2, the “published value for the half-life” value in series [5] is reported as 5 h.

B3: Flt3L (Peprotech): commercially available Flt3 preparation recombinantly expressed in bacteria (Peprotech) (protein, UniProt P49771 27-235, looked up)
Fms-related tyrosine kinase 3 …: B1 Fms-related tyrosine kinase 3 …
For B3, in series [4], the “expansion of dendritic cells” value is reported as “only slightly potent”.
